How the values were obtained:
[1] = target: T1, Tyrosine-protein kinase receptor UFO (Homo sapiens, UniProt P30530); experiment: Inhibition of human recombinant AXL incubated for 1 to 1.5 hrs by FRET based Z'-Lyte kinase assay
T1 sequence (P30530 whole entry): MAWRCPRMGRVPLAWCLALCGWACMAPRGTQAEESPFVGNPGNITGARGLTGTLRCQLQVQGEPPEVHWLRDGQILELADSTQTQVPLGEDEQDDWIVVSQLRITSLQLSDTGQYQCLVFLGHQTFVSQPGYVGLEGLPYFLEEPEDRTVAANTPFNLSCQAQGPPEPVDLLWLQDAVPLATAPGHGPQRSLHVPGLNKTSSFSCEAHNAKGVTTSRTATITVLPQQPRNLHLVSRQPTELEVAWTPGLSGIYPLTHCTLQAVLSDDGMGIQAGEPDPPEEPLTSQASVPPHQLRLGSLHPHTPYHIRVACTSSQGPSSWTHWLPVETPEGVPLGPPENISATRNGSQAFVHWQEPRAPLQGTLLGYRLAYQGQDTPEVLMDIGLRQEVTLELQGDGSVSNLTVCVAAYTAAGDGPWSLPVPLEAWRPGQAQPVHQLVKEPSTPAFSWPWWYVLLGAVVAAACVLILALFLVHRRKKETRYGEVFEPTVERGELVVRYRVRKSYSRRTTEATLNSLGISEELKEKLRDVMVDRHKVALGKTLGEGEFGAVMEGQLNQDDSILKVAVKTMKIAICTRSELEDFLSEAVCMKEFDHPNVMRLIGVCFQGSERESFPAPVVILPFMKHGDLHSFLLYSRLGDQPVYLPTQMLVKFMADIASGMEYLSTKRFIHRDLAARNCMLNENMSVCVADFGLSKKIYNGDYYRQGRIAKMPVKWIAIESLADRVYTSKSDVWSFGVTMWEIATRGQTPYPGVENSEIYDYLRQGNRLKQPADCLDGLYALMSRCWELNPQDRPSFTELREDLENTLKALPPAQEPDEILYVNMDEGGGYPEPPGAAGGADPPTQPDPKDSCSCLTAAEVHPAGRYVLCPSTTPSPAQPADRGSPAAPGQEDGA

[2] = target: T1, Tyrosine-protein kinase receptor UFO; experiment: Binding affinity to human AXL by active site dependent completion binding assay
[3] = system: MDA-MB-231; experiment: Effect on total AXL protein level in human MDA-MB-231 cells at 0.03 to 3 uM after 6 hrs by Western blot method; format: ADME, cell-based; details: mda-mb-231, 6 h
[4] = system: MDA-MB-231; experiment: Effect on total AKT protein level in human MDA-MB-231 cells at 0.03 to 3 uM after 6 hrs by Western blot method; format: ADME, cell-based; details: mda-mb-231, 6 h
[5] = system: MDA-MB-231; experiment: Antiproliferative activity against human MDA-MB-231 cells after 24 to 72 hrs by MTT assay; format: functional, cell-based
[6] = system: 4T1; experiment: Antiproliferative activity against mouse 4T1 cells over-expressing Axl cells after 24 to 72 hrs by MTT assay; format: functional, cell-based
[7] = system: MDA-MB-231; experiment: Antiproliferative activity against human MDA-MB-231 cells after 24 to 72 hrs by CCK8 assay; format: functional, cell-based
[8] = system: 4T1; experiment: Antiproliferative activity against mouse 4T1 cells over-expressing Axl cells after 24 to 72 hrs by CCK8 assay; format: functional, cell-based
[9] = Tmax in Sprague-Dawley rat at 25 mg/kg, po by LC/MS method; format: ADME, organism-based; details: in vivo
[10] = Oral bioavailability in Sprague-Dawley rat at 25 mg/kg by LC/MS method; format: ADME, organism-based; details: in vivo
[11] = target: ALK tyrosine kinase receptor (Homo sapiens, UniProt Q9UM73); experiment: Binding affinity to human ALK
[12] = target: T1, Tyrosine-protein kinase receptor UFO; experiment: Binding affinity to human AXL
[13] = target: Tyrosine-protein kinase Blk (Homo sapiens, UniProt P51451); experiment: Binding affinity to human BLK
[14] = target: Aurora kinase A (Homo sapiens, UniProt O14965); experiment: Inhibition of aurora A (unknown origin)
[15] = target: Aurora kinase B (Homo sapiens, UniProt Q96GD4); experiment: Inhibition of aurora B (unknown origin)
Aurora kinase B, sequence (Q96GD4 whole entry): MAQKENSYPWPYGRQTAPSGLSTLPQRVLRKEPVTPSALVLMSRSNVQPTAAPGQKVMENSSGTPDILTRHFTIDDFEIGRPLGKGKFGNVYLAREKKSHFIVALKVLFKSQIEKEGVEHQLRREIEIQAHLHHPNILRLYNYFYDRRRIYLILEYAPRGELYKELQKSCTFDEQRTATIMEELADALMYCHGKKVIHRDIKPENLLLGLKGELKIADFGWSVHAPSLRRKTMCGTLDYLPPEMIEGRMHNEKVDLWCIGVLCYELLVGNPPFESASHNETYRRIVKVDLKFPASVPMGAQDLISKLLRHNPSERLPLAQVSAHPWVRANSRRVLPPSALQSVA

[16] = target: Cyclin-dependent kinase 11B (Homo sapiens, UniProt P21127); experiment: Binding affinity to human CDK11
Cyclin-dependent kinase 11B, sequence (P21127 whole entry): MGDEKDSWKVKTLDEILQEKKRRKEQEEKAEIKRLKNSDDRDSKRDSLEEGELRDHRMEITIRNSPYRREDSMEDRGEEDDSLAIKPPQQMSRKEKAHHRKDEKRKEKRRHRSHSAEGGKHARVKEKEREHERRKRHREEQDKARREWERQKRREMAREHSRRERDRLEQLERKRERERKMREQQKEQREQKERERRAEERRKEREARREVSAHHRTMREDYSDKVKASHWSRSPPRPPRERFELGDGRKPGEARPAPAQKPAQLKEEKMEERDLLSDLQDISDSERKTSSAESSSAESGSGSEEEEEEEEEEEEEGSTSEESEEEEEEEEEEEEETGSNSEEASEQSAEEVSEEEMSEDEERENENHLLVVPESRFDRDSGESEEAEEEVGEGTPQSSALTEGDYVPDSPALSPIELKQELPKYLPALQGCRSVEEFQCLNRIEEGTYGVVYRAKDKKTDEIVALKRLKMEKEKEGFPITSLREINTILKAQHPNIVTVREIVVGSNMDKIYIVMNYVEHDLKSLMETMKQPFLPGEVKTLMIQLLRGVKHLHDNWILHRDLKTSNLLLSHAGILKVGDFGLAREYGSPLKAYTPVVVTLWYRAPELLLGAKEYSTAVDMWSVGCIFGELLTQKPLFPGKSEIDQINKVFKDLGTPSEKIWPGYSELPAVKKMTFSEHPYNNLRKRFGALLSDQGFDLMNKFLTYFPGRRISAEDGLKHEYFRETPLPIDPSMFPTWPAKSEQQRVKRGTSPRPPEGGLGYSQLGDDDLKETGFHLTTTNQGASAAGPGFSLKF

[17] = target: Cyclin-dependent kinase 8 (Homo sapiens, UniProt P49336); experiment: Binding affinity to human CDK8
Cyclin-dependent kinase 8, sequence (P49336 whole entry, the tested form may be a part): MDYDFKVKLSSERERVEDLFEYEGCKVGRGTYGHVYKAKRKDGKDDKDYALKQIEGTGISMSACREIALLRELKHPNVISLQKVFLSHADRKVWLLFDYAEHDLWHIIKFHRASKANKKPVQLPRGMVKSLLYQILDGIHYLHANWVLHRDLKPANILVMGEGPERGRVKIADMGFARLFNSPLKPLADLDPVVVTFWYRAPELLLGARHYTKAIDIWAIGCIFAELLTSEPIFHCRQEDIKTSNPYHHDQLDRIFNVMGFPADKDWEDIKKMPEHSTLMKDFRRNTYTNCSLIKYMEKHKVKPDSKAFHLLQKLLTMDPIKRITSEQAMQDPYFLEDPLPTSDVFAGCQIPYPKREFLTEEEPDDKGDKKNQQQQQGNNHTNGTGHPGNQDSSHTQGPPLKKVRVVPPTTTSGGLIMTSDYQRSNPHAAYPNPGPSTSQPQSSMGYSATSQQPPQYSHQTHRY

[18] = target: Epithelial discoidin domain-containing receptor 1 (Homo sapiens, UniProt Q08345); experiment: Inhibition of DDR1 (unknown origin)
[19] = target: Discoidin domain-containing receptor 2 (Homo sapiens, UniProt Q16832); experiment: Inhibition of DDR2 (unknown origin)
[20] = target: T2, Receptor-type tyrosine-protein kinase FLT3 (Homo sapiens, UniProt P36888); experiment: Binding affinity to human FLT3
T2 sequence (P36888 whole entry): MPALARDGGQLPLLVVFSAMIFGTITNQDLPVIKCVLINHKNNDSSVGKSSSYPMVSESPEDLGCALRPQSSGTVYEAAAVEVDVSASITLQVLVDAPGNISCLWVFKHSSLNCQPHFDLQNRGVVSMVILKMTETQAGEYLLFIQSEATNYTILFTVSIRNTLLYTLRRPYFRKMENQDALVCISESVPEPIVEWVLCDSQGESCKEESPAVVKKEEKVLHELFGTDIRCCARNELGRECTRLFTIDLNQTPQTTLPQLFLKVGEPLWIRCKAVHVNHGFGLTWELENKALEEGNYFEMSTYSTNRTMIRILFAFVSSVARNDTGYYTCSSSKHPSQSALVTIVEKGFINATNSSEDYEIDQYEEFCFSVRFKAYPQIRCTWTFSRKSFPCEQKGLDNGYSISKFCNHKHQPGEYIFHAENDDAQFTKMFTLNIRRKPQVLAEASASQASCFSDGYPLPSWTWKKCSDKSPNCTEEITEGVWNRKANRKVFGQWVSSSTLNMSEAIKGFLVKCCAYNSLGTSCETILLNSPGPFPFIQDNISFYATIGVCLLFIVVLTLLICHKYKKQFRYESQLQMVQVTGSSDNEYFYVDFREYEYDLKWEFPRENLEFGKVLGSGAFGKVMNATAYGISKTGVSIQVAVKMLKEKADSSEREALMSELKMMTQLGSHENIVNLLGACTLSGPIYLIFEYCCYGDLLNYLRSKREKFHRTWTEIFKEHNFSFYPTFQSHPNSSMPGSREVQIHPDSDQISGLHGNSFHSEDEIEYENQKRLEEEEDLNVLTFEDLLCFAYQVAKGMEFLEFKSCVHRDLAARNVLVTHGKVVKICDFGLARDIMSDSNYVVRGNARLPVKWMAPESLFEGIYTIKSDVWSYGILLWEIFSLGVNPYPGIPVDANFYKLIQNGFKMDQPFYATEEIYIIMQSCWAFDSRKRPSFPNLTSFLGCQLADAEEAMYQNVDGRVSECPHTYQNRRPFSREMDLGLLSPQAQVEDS

[21] = target: T2, Receptor-type tyrosine-protein kinase FLT3; experiment: Inhibition of FLT3 (unknown origin)
[22] = target: Homeodomain-interacting protein kinase 4 (Homo sapiens, UniProt Q8NE63); experiment: Binding affinity to human HIPk4
Homeodomain-interacting protein kinase 4, sequence (Q8NE63 whole entry): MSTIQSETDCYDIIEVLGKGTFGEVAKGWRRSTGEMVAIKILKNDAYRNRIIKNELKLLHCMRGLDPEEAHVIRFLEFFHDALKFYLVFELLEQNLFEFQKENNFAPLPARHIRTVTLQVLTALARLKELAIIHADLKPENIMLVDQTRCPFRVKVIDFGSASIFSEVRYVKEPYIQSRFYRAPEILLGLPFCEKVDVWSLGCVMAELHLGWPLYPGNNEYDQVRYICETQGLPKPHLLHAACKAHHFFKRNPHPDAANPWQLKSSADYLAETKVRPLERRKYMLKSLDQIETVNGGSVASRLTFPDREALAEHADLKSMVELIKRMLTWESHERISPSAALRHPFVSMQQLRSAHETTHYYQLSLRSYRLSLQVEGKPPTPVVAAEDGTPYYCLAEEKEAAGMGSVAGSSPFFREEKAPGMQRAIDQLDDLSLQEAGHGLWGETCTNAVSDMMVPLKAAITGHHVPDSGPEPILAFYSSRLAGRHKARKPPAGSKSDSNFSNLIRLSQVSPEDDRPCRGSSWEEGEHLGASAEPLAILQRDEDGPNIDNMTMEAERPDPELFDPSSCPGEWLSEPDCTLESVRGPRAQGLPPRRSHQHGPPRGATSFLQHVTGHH

[23] = target: Mast/stem cell growth factor receptor Kit (Homo sapiens, UniProt P10721); experiment: Binding affinity to human KIT
Mast/stem cell growth factor receptor Kit, sequence (P10721 whole entry): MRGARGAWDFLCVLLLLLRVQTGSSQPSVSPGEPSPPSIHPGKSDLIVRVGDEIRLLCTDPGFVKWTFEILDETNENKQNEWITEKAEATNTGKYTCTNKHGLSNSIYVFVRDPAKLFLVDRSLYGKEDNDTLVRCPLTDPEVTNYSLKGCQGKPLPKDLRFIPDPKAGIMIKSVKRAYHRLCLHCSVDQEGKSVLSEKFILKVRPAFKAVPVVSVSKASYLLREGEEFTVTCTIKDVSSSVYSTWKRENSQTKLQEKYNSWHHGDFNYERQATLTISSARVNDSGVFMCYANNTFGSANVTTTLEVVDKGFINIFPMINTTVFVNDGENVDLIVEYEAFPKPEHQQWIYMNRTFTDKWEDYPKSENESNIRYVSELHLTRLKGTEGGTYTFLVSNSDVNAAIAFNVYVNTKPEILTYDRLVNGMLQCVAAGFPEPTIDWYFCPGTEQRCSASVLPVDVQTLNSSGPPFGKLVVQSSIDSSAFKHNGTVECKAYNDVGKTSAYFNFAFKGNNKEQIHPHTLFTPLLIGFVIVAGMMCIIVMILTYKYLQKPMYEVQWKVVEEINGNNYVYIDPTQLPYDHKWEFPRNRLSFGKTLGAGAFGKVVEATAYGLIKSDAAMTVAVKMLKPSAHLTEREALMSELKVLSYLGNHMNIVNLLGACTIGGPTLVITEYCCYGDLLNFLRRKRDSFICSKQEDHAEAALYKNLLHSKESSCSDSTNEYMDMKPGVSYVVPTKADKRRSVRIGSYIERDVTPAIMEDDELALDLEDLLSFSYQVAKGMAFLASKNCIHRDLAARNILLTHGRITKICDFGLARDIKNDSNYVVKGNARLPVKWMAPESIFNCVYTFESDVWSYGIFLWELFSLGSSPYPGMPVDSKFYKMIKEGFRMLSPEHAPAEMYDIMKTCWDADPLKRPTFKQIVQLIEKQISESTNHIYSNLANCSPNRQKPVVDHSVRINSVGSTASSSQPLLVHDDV

[24] = target: Serine/threonine-protein kinase 10 (Homo sapiens, UniProt O94804); experiment: Binding affinity to human LOK
[25] = target: Dual specificity mitogen-activated protein kinase kinase 5 (Homo sapiens, UniProt Q13163); experiment: Binding affinity to human MEK5
[26] = target: Tyrosine-protein kinase Mer (Homo sapiens, UniProt Q12866); experiment: Binding affinity to human MER
[27] = target: Hepatocyte growth factor receptor (Homo sapiens, UniProt P08581); experiment: Binding affinity to human MET
[28] = target: STE20-like serine/threonine-protein kinase (Homo sapiens, UniProt Q9H2G2); experiment: Binding affinity to human SLK
[29] = target: High affinity nerve growth factor receptor (Homo sapiens, UniProt P04629); experiment: Binding affinity to human TRKA
[30] = target: BDNF/NT-3 growth factors receptor (Homo sapiens, UniProt Q16620); experiment: Binding affinity to human TRKB
[31] = target: Tyrosine-protein kinase receptor TYRO3 (Homo sapiens, UniProt Q06418); experiment: Binding affinity to human Tyro3
Tyrosine-protein kinase receptor TYRO3, sequence (Q06418 whole entry): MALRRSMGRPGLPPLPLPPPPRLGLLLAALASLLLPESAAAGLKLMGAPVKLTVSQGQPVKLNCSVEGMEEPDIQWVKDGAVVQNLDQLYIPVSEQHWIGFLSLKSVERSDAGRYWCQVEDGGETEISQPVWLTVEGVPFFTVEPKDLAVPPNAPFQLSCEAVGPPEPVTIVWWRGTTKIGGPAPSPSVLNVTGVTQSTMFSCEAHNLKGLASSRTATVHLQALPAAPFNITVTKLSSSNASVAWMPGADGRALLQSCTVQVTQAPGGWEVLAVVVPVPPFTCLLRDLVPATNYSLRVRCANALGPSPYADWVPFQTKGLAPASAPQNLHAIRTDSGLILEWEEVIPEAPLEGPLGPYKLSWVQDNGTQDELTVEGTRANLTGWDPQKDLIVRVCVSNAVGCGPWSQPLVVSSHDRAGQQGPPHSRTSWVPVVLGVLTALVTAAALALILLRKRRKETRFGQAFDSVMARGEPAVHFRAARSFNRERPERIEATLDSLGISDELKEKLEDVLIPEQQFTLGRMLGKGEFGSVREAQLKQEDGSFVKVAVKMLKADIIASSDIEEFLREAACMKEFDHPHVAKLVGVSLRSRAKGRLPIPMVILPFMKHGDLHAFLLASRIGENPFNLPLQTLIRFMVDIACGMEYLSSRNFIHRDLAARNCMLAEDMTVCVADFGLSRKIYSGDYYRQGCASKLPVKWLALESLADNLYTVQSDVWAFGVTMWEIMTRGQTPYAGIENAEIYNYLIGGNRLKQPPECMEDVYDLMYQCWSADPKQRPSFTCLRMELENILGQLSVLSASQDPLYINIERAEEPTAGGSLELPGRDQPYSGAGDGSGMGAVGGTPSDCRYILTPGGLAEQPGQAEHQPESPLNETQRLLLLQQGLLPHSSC

[32] = AUC (0 to infinity) in Sprague-Dawley rat at 2.5 mg/kg, iv by LC/MS method; format: ADME, organism-based; design: dose 2.5 mg/kg, route intravenous, time infinity; details: in vivo
[33] = Half life in Sprague-Dawley rat at 2.5 mg/kg, iv by LC/MS method; format: ADME, organism-based; details: in vivo
[34] = Cmax in Sprague-Dawley rat at 2.5 mg/kg, iv by LC/MS method; format: ADME, organism-based; design: dose 2.5 mg/kg, route intravenous; details: in vivo
[35] = Clearance in Sprague-Dawley rat at 2.5 mg/kg, iv by LC/MS method; format: ADME, organism-based; details: in vivo
[36] = Ratio of Cmax in Sprague-Dawley rat at 25 mg/kg, po to IC50 for inhibition of human recombinant AXL; format: organism-based; details: in vivo
[37] = system: MDA-MB-231; experiment: Inhibition of TGFbeta1-induced cell migration in human MDA-MB-231 cells at 0.2 uM incubated for 24 hrs by wound healing assay; format: functional; details: MDA-MB-231, 24 h
[38] = system: MDA-MB-231; experiment: Inhibition of TGFbeta1-induced cell migration in human MDA-MB-231 cells at 1 uM incubated for 24 hrs by wound healing assay; format: functional; details: MDA-MB-231, 24 h
[39] = system: MDA-MB-231; experiment: Inhibition of TGFbeta1-induced cell migration in human MDA-MB-231 cells at 5 uM incubated for 24 hrs by wound healing assay; format: functional; details: MDA-MB-231, 24 h
[40] = system: MDA-MB-231; experiment: Inhibition of TGFbeta1-induced cell invasion in human MDA-MB-231 cells at 0.04 uM incubated for 24 hrs by matrigel-mediated Boyden chamber assay; format: functional; details: MDA-MB-231, 24 h
[41] = system: MDA-MB-231; experiment: Inhibition of TGFbeta1-induced cell invasion in human MDA-MB-231 cells at 0.2 uM incubated for 24 hrs by matrigel-mediated Boyden chamber assay; format: functional; details: MDA-MB-231, 24 h
[42] = system: MDA-MB-231; experiment: Inhibition of TGFbeta1-induced cell invasion in human MDA-MB-231 cells at 1 uM incubated for 24 hrs by matrigel-mediated Boyden chamber assay; format: functional; details: MDA-MB-231, 24 h
[43] = system: MDA-MB-231; experiment: Inhibition of TGFbeta1-induced cell invasion in human MDA-MB-231 cells at 5 uM incubated for 24 hrs by matrigel-mediated Boyden chamber assay; format: functional; details: MDA-MB-231, 24 h
[44] = system: MDA-MB-231; experiment: Toxicity in human MDA-MB-231 cells at 0.04 to 5 uM incubated for 24 hrs; format: cell-based; details: mda-mb-231, 24 h

SMILES: COC(=O)c1ccc2c(c1)c(=O)c(C(=O)Nc1ccc(Oc3ncnc4[nH]cc(-c5ccccc5)c34)c(F)c1)c(C)n2C
- IC50 [1]: > 10000 nM

SMILES: Cc1c(C(=O)Nc2ccc(Oc3ncnc4[nH]cc(-c5ccccc5)c34)c(F)c2)c(=O)c2cc(C3CC3)ccc2n1C
- IC50 [1]: 230 nM

SMILES: Cc1ccc2c(c1)c(=O)c(C(=O)Nc1ccc(Oc3ncnc4[nH]cc(-c5ccccc5)c34)c(F)c1)cn2C
- IC50 [1]: 150 nM

SMILES: C=C(C)c1ccc2c(c1)c(=O)c(C(=O)Nc1ccc(Oc3ncnc4[nH]cc(-c5ccccc5)c34)c(F)c1)c(C)n2C
- IC50 [1]: 170 nM

SMILES: Cc1ccc2c(c1)c(=O)c(C(=O)Nc1ccc(Oc3ncnc4[nH]cc(-c5ccccc5)c34)c(F)c1)c(C)n2C
- IC50 [1]: 100 nM

SMILES: Cc1c(C(=O)Nc2ccc(Oc3ncnc4[nH]cc(-c5ccccc5)c34)c(F)c2)c(=O)c2cc(C(F)(F)F)ccc2n1C
- IC50 [1]: 150 nM

SMILES: Cc1c(C(=O)Nc2ccc(Oc3ncnc4[nH]cc(-c5ccccc5)c34)c(F)c2)c(=O)c2cc(C3=CCCC3)ccc2n1C
- IC50 [1]: 3320 nM

SMILES: CCc1ccc2c(c1)c(=O)c(C(=O)Nc1ccc(Oc3ccnc4occ(-c5ccccc5)c34)c(F)c1)c(C)n2C
- IC50 [1]: 192 nM

SMILES: CCc1ccc2c(c1)c(=O)c(C(=O)Nc1ccc(Oc3ncnc4[nH]cc(-c5ccccc5)c34)cc1F)c(C)n2C
- IC50 [1]: 30 nM

SMILES: Cc1c(C(=O)Nc2ccc(Oc3ncnc4[nH]cc(-c5ccccc5)c34)c(F)c2)c(=O)c2cc(C3CCCC3)ccc2n1C
- IC50 [1]: 200 nM

SMILES: CCc1ccc2c(c1)c(=O)c(C(=O)Nc1ccc(Oc3ccnc(Cl)c3)c(F)c1)c(C)n2C
- IC50 [1]: > 10000 nM

SMILES: Cc1c(C(=O)Nc2ccc(Oc3ncnc4[nH]cc(-c5ccccc5)c34)c(F)c2)c(=O)c2cc(OC(F)(F)F)ccc2n1C
- IC50 [1]: 74 nM

SMILES: CCc1ccc2c(c1)c(=O)c(C(=O)Nc1ccc(Oc3ncnc4[nH]cc(-c5ccccc5)c34)c(F)c1)c(C)n2C
- Kd [2]: 1.2 nM
- Activity [3]: Non-Toxic
- Activity [4]: Non-Toxic
- IC50 [5]: > 10000 nM
- IC50 [6]: > 10000 nM
- IC50 [7]: > 10000 nM
- IC50 [8]: > 10000 nM
- Tmax [9]: 0.67 h
- bioavailability [10]: 1.2%

SMILES: CCn1c(C)c(C(=O)Nc2ccc(Oc3ncnc4[nH]cc(-c5ccccc5)c34)c(F)c2)c(=O)c2cc(C)ccc21
- IC50 [1]: 150 nM

SMILES: CCc1ccc2c(c1)c(=O)c(C(=O)Nc1ccc(Oc3ncnc4cc(OC)c(OC)cc34)c(F)c1)c(C)n2C
- Kd [2]: 2.7 nM
- Kd [11]: > 1000 nM
- Kd [12]: 2.7 nM
- Kd [13]: 200 nM
- IC50 [14]: 192 nM
- IC50 [15]: 114 nM
- Kd [16]: 470 nM
- Kd [17]: > 1000 nM
- IC50 [18]: 22.2 nM
- IC50 [19]: 350 nM
- Kd [20]: 4 nM
- IC50 [21]: < 10 nM
- Kd [22]: 11 nM
- Kd [23]: 1670 nM
- Kd [24]: 10 nM
- Kd [25]: 38 nM
- Kd [26]: 1.4 nM
- Kd [27]: 79 nM
- Kd [28]: 240 nM
- Kd [29]: 50 nM
- Kd [30]: 54 nM
- Kd [31]: 58 nM
- Activity [3]: Non-Toxic
- Activity [4]: Non-Toxic
- IC50 [5]: > 10000 nM
- IC50 [6]: > 10000 nM
- IC50 [7]: > 10000 nM
- IC50 [8]: > 10000 nM
- Tmax [9]: 6 h
- AUC(0-inf) [32]: 42300 ng·h/mL
- half-life [33]: 25.2 h
- Cmax [34]: 1170 ng/mL
- clearance [35]: 1.67 mL/min/kg
- Ratio [36]: > 900
- inhibition at 0.2 µM [37]: 24.2%
- inhibition at 1 µM [38]: 50.6%
- inhibition at 5 µM [39]: 58.4%
- inhibition at 0.04 µM [40]: 48.5%
- inhibition at 0.2 µM [41]: 52.1%
- inhibition at 1 µM [42]: 73.5%
- inhibition at 5 µM [43]: 78.1%
- Activity [44]: Non-Toxic

SMILES: CCc1ccc2c(c1)c(=O)c(C(=O)Nc1ccc(Oc3ccnc4[nH]cc(-c5ccccc5)c34)c(F)c1)c(C)n2C
- IC50 [1]: 30 nM

SMILES: CCc1ccc2c(c1)c(=O)c(C(=O)Nc1ccc(Oc3ccnc(C(N)=O)c3Cl)c(F)c1)c(C)n2C
- IC50 [1]: > 10000 nM

— ChEMBL document CHEMBL4425136, “4-Oxo-1,4-dihydroquinoline-3-carboxamide Derivatives as New Axl Kinase Inhibitors” (J Med Chem, 2016)
